How the values were obtained:
[1] = test system: R1 lines from pMON29220 (P-ICL/canola antisense CPS); assay: Emergence of R1 canola seed (pMON29220) with exogenous GA3; assay type: in vivo, Brassica napus; details: GA3 10^−5 M to the seed or soil; lines with 2 day delay in emergence
Source text: Seeds are produced from plants transformed with plasmid pMON29220 (P-ICL/canola antisense CPS). These are planted and analyzed for germination phenotype. A 2 day delay in emergence is observed for 58% of the R1 lines tested from pMON29220.

[2] = test system: pMON29801 soybean lines 719 and 724; assay: GA3 soil drench, emergence and shoot length of FMV/asCPScc soybean; assay type: in vivo, Glycine max; details: for Plant height (cm): +3 × 10^−6 M GA3 soil drench, 7 days after planting
Source text: Thirty-five soybean plants are produced by transformation with pMON29801 (FIG. 7) containing the antisense CPS conserved core (asCPScc) gene driven by constitutive FMV promoter. The seed (R1) from the initial R0 transgenic lines is collected. R1 seeds are sown in 4-inch pots filled with commercial potting soil (Metromix 350) that is saturated with water or GA3 at a rate of either 3×10^−6 or 10^−5 M. Typically, 20 seeds are sown in 10 pots for each treatment, except where the seed supply is limiting. Pots are incubated in a greenhouse routinely used for soybean growth. Emergence is scored versus days after planting (DAP). Two soybean lines, 724 and 720, show a delayed emergence phenotype. Line 724 emergence is 1 to 2 days later than the control.
The timing of emergence and plant stature at for transgenic (plasmid pMON29801, FMV/asCPScc) soybean line 724 is rescued by sowing seeds in soil saturated with 3×10^−6 M GA3. At 7 days after planting (DAP), the GA3 treatment to the seeds rescued plant stature to within 10% of the A3237 control. As an additional control, soybean (A3237) seeds are coated with different concentrations of a commercial formulation of GA3 (Release®) blended with talc and sown in sand saturated with 3 mg/L ancymidol and grown in a greenhouse. Plant height is measured at 6 DAP. […] This rate is equivalent to approximately 62 mg GA3 per acre (assuming 140,000 seeds/acre).
GA3 added to plasmid pMON29801 transgenic soybean seeds as a soil drench also restores soybean emergence timing and plant height during early seedling growth. Rates of GA3 between 1×10^−6 and 1×10^−5 M, when added to soil either immediately before planting or immediately after, restores normal shoot length in emerged Line #719 seedlings (Table 5).

[3] = test system: asCPScc soybean lines 696, 719, 720 and 724; assay: Seed yield of asCPScc soybean lines treated with GA3; assay type: in vivo, Glycine max
Protocol: One hundred nine soybean plants from four […] lines (696, 719, 720 and 724) identified with GA-deficient phenotypes are grown to maturity and the seed harvested. Three of the lines (696, 719 and 720) required weekly spraying with GA3 to restore normal vegetative growth. […] Seed yield, seed weight per seed, pod number and seeds/pod data are collected for each plant. Data is collected in three groups for each line: plants that are wild-type; plants that are dwarfs and received no exogenous GA; and plants that are treated with exogenous GA3. […] Line 724 dwarf plants produces equivalent yields to the wild-type plants within this line without any external spraying. […] Line 724 has no reduction in seed weight in dwarfs without supplying exogenous GA.

[4] = test system: pMON34439 soybean lines 46 and 202; assay: GA3 soil drench plus foliar spray on AX5/antisense CPScc seedlings; assay type: in vivo, Glycine max; details: 1×10^−6 M GA3 soil drench before planting plus foliar 1×10^−5 M GA3 spray
Source text: Two out of 59 transgenic soybean lines transformed with construct pMON34439 (AX5 promoter/antisense CPScc, FIG. 26), lines 46 and 202, show a reduced stature during early seedling growth and then resume normal vegetative growth. Twenty seeds of each line are sown in Metromix 350 soil in 3″ plastic pots in the greenhouse, approximately 40% of the seedlings are reduced in stature for line 46 and 25, 35% for line 202.

[5] = test system: ancymidol-treated soybean; assay: GA3 soil drench restoring seedling height in ancymidol-treated soybean; assay type: in vivo, Glycine max
Source text: For example, in side-by-side comparisons using soybean, the same dose of GA3 gives substantial differences in hypocotyl elongation depending on the method of application. The relative sensitivity can be: soil drench>hilum treatment>seed imbibition). Also, the dose of GA3, applied as a soil drench, that is needed to fully restore normal seedling height in ancymidol-treated soybean increases with time after planting (10^−7M at 4 DAP; greater than 10^−5 M at 11 DAP).

[6] = test system: wild-type soybean variety A4922; assay: GA3 seed treatment, soybean stand count and yield in the field; assay type: in vivo, Glycine max
Source text: Treated seed is planted about 1 inch deep in previously disced soil using a cone planter. The rows are about 30 inches (76.2 cm) apart, and 15 feet (457.2 cm) long. Seeds are spaced about 3 inches (7.62 cm) apart within the rows. The emerged plants are counted periodically, and seed yields are obtained at harvest. The plant counts and yields are converted to a per acre basis. […] The decrease in plant population per acre is due to lack of emergence, in part due to broken and unhooked hypocotyls. In addition, some of the emerged plants are abnormal, e.g., with small, broken cotyledons, etc.

[7] = Half-lives of 14C-labelled GA compounds in soil; details: spinks soil, aerobic, 25° C., darkness; read-out: Half-life (days) in soil (converted)
Protocol: Metabolic studies in soil are conducted with ^14C-labelled GA compounds in order to investigate the route and rate of compound degradation in soil under aerobic conditions. ^14C-labelled GA compounds are obtained from Lew Mander (Australian National University). The ^14C-labelled compounds dissolved in 0.2-2 ml water:ethanol, 80:20, v/v, are applied to 50-60 gm portions of spinks soil (USDA classification Loamy Sand: 82% sand, 14% silt, and 4% clay) in 250 ml centrifuge bottles at a rate of 0.1-0.2 ppm (6-12 μg; approximately 1,200,000 dpm per soil sample. The soil samples are placed in a glass dessicator which served as a container for all soil bottles. The glass dessicator is connected to three separate trapping solutions in series, each containing 20 ml of ethylene glycol:ethanolamine, 2:1, v/v. Air is pulled into the glass dessicator and through the trapping solutions by house vacuum. The trapping solutions are used to collect ^14C-volatiles and ^14C-CO2. Soil samples are incubated for eight days at 25° C. in darkness. For most experiments, duplicate soil samples are harvested 0, 6, 12, 24, 46, 72, 120, and 192 hours after initial treatment. Soil samples are extracted twice with 100 ml of water:methanol, 20:80, v/v, and the combined extracts are analyzed by HPLC under the same conditions as described for the determination of half-lives of GA compounds in planta, above.

Q: Which results are given for `C=C1C[C@]23C[C@@]1(O)CC[C@H]2[C@@]12C=C[C@H](O)[C@@](C)(C(=O)O1)[C@H]2[C@@H]3C(=O)O` [GA3, gibberellic acid]?
A: emergence delay [1]: rescuing the emergence delay; Plant height (cm) ([2]; R1 line 719): 11.3 (1.0) cm; Plant height (cm) ([2]; R1 line 724): 10.9 (0.9) cm; plant stature, difference from the A3237 control ([2]; line 724, soil saturated with 3×10^−6 M GA3, 7 DAP): ≤ 10%; reduction of seed weight per seed ([3]; dwarf plants, GA treatments): nearly completely rescued; seed yield restored, % of the yield of the wild-types ([3]; dwarfs treated continuously with GA3, lines 696 and 719): 70%; normal growth rate of seedlings [4]: at least partially restored; dose of GA3 needed to fully restore normal seedling height ([5]; 4 DAP): 10^−7 M; dose of GA3 needed to fully restore normal seedling height ([5]; 11 DAP): greater than 10^−5 M; Plants per Acre ([6]; 5 ppm GA3 seed treatment): 41,458; Yield (bushels/acre) ([6]; 5 ppm GA3 seed treatment): 41.6 bushels/acre; Plants per Acre ([6]; 10 ppm GA3 seed treatment): 35,133; Yield (bushels/acre) ([6]; 10 ppm GA3 seed treatment): 31.9 bushels/acre; Plants per Acre ([6]; 15 ppm GA3 seed treatment): 30,566; Yield (bushels/acre) ([6]; 15 ppm GA3 seed treatment): 31.4 bushels/acre; half-life [7]: 0.5 days

— patent US6723897B2, “Methods for controlling gibberellin levels” (Monsanto Technology, LLC, priority 1998, dated 2004)
